Where “and” joins values, the source holds several entries; their conditions need not be identical. Equal entries are not always repeated.
Experiments:
[1] = Crystal, Calculated from knudsen effusion weight loss
[2] = molar enthalpy of vaporization or sublimation; settings: Crystal, Static calorimetry

O=C1CCCCCN1 [1-aza-2-cycloheptanone]
Settings | molar enthalpy [kcal/mol] | vapor or sublimation pressure
[1], 293.7 K | – | 0.0001506 kPa and 0.0001518 kPa and 0.0001508 kPa
[1], 295.7 K | – | 0.0001889 kPa and 0.000183 kPa and 0.000182 kPa
[1], 296.6 K | – | 0.0002196 kPa and 0.0002191 kPa and 0.0002211 kPa
[1], 298.19 K | – | 0.0002627 kPa and 0.0002587 kPa and 0.0002716 kPa
[1], 299.67 K | – | 0.0003254 kPa and 0.0003117 kPa and 0.0003173 kPa
[1], 301.1 K | – | 0.0003753 kPa and 0.0003757 kPa and 0.0003791 kPa
[1], 302.69 K | – | 0.0004428 kPa and 0.0004363 kPa and 0.0004403 kPa
[1], 304.15 K | – | 0.0005432 kPa and 0.0005228 kPa and 0.0005341 kPa
[1], 305.59 K | – | 0.0006305 kPa and 0.0006272 kPa and 0.0006374 kPa
[1], 307.18 K | – | 0.0007318 kPa and 0.0007265 kPa and 0.0007404 kPa
[1], 308.66 K | – | 0.0008828 kPa and 0.0009064 kPa and 0.0008695 kPa
[1], 310.1 K | – | 0.001048 kPa and 0.001045 kPa and 0.001038 kPa
[2], 350.03 K | 20.9 | –

S=C1CCCCCN1 [azepane-2-thione]
Settings | molar enthalpy [kcal/mol] | vapor or sublimation pressure
[1], 318.18 K | – | 9.46e-05 kPa and 9.18e-05 kPa and 9.11e-05 kPa
[1], 320.16 K | – | 0.0001201 kPa and 0.0001211 kPa and 0.0001173 kPa
[1], 322.08 K | – | 0.0001485 kPa and 0.0001484 kPa and 0.0001469 kPa
[1], 324.2 K | – | 0.0001813 kPa and 0.0001821 kPa and 0.0001901 kPa
[1], 326.15 K | – | 0.0002346 kPa and 0.0002296 kPa and 0.0002407 kPa
[1], 328.08 K | – | 0.0002879 kPa and 0.0002891 kPa and 0.0002869 kPa
[1], 330.18 K | – | 0.0003569 kPa and 0.0003533 kPa and 0.0003704 kPa
[1], 332.12 K | – | 0.0004537 kPa and 0.0004424 kPa and 0.0004677 kPa
[1], 334.07 K | – | 0.0005566 kPa and 0.0005557 kPa and 0.0005502 kPa
[1], 336.18 K | – | 0.0006862 kPa and 0.0006759 kPa and 0.0007079 kPa
[1], 338.15 K | – | 0.000897 kPa and 0.0008658 kPa and 0.0008434 kPa
[1], 340.08 K | – | 0.001048 kPa and 0.001057 kPa and 0.001058 kPa
[2], 386.11 K | 23.5 | –

Reference: the NIST ThermoML archive (doi:10.1016/j.jct.2019.01.014)
